Test results taken from paper PMC12118597 (Science Advances, 2025).
“And” between values parts separate entries of the source, which are not always exact repeats. Equal entries are not always repeated. Where two headings read alike, the source gives them in different places.

Columns and labels:
[1] = target: T1, SARS-CoV-2 NSP3 macrodomain (Mac1) (Severe acute respiratory syndrome coronavirus 2, UniProt P0DTD1); assay type: binding; conditions: for 1-BDC (PanDDA run, DMSO background map): event 1; for 2*(1-BDC) (%): occupancy estimate from PanDDA; for Total number of conformations: ligand conformations modeled in the crystal structure
[2] = target: T1, SARS-CoV-2 NSP3 macrodomain (Mac1); experiment: biochemical; assay type: binding
[3] = PanDDA background density correction, 1-BDC
[4] = crystal soak 10 mM, DMSO background map
[5] = crystal soak, 10 mM soak concentration, P43 crystal form
[6] = ligand-bound crystal structure obtained (TRUE)
[7] = site occupied in X-ray crystal structure
[8] = HTRF binding curve, SARS-CoV-2 Mac1
[9] = SARS CoV-2 macrodomain HTRF assay, dose-response
[10] = crystal soak concentration 10 mM, DMSO background map
[11] = crystal soak concentration 10 mM, P43 crystals
[12] = PanDDA background density correction factor
[13] = TRUE = crystal structure with ligand obtained
[14] = crystal soak 10 mM, P43 crystal form
[15] = refined crystallographic occupancy
[16] = site of ligand in X-ray crystal structure

SMILES	1-BDC [1, 3]	Refined ligand occupancy (%) ([1]; crystallographic refinement)	X-ray crystal structure [1, 6]	2*(1-BDC) (%) [1]	Binding site [1, 7]	Hill slope [2, 8]	Hill slope [2, 9]	Occupancy difference (refined_occupancy - 2*(1-BDC)) [1]	1-BDC [1, 12]	X-ray crystal structure [1, 13]	PanDDA run, overall: Hit [1, 14]	PanDDA run, DMSO background map: 1-BDC [1, 4]	PanDDA run, DMSO background map: Hit [1, 4]	Total number of conformations [1]	Refined ligand occupancy (%) [1, 15]	Binding site [1, 16]	also measured
OC1(CNc2ncnc3[nH]ccc23)CCC(F)(F)CC1 [AVI-4308]	0.15	30%	TRUE	30%	Adenosine	1.2	1.2	–	–	–	–	–	–	–	–	–	Hit (PanDDA run, DMSO background map) [1, 4]: TRUE; 1-BDC (PanDDA run, DMSO background map) [1, 4]: 0.15; Hit (PanDDA run, overall) [1, 5]: TRUE
CC1(C)CCN(c2ncnc3[nH]ccc23)C(CO)C1 (centres unmarked) [AVI-5994]	0.23	46%	TRUE	46%	Adenosine	1.2	1.2	–	–	–	–	–	–	–	–	–	–
Cc1c[nH]c2ncnc(NCC3(O)CCC(C)(C)CC3)c12 [AVI-4330]	–	–	–	–	–	1.3	1.3	–	–	–	–	–	–	–	–	–	Hit (PanDDA run, DMSO background map) [1, 10]: TRUE; 1-BDC (PanDDA run, DMSO background map) [1, 10]: 0.11; Hit (PanDDA run, overall) [1, 11]: TRUE; Modeling comment (PanDDA run, overall) [1, 11]: Weak density, not modeled
O=C(O)C(F)(F)F.OCC1(Nc2ncnc3[nH]ccc23)CCCC1 [AVI-3692]	–	–	–	44%	–	1.3	1.3	-24	0.22	TRUE	TRUE	0.22	TRUE	1	20%	Adenosine	PanDDA run, overall: Modeled [1, 14]: TRUE
CC(C)(CO)Nc1ncnc2[nH]ccc12 [AVI-5266]	0.12	40%	–	24%	–	1.1	1.1	–	–	TRUE	–	–	–	–	–	Adenosine	–
CCC(C)(CO)Nc1ncnc2[nH]ccc12 (centres unmarked) [AVI-3697]	–	–	–	32%	–	1.2	1.2	18	0.16	TRUE	TRUE	0.16	TRUE	1	50%	Adenosine	PanDDA run, overall: Modeled [1, 14]: TRUE
OCC(CN1CCCCC1)Nc1ncnc2[nH]ccc12 (centres unmarked) [AVI-3677]	–	–	–	42%	–	–	–	0	0.21	TRUE	TRUE	0.21	TRUE	1	42%	Adenosine	PanDDA run, overall: Modeled [1, 14]: TRUE; detectable binding at 200 μM in the HTRF assay ([2]; result in words): neither had detectable binding
CC1(C)CCC(O)(CNc2ncnc3[nH]ccc23)CC1 [AVI-4310]	–	–	–	–	–	1.3	1.3	–	–	–	–	–	–	–	–	–	Hit (PanDDA run, DMSO background map) [1, 4]: TRUE; 1-BDC (PanDDA run, DMSO background map) [1, 4]: 0.14; Modeling comment (ligand density) ([1]; crystal soak 10 mM, PanDDA run, overall): Weak density, not modeled; Hit (PanDDA run, overall) [1, 5]: TRUE
OC[C@@H]1C[C@H](O)CN1c1ncnc2[nH]ccc12 [AVI-610]	–	–	TRUE	42%	Adenosine	1.2	1.2	18	0.21	–	TRUE	0.34 and 0.31 and 0.21 and 0.26	TRUE	1	60%	–	–
CCC(CC)(CO)Nc1ncnc2[nH]ccc12 [AVI-3695]	–	–	–	24%	–	1.3	1.3	6	0.12	TRUE	TRUE	0.12	TRUE	2	30%	Adenosine	PanDDA run, overall: Modeled [1, 14]: TRUE
CC(C)(O)C1N(c2ncnc3[nH]ccc23)CCC1(C)C (centres unmarked) [AVI-4126]	0.16	40%	TRUE	32%	Adenosine	1.3	1.3	–	–	–	–	–	–	–	–	–	Hit (PanDDA run, DMSO background map) [1, 10]: TRUE; Modeled (PanDDA run, DMSO background map) [1, 10]: TRUE; 1-BDC (PanDDA run, DMSO background map) [1, 10]: 0.17 and 0.16; Hit (PanDDA run, overall) [1, 11]: TRUE; Modeled (PanDDA run, overall) [1, 11]: TRUE; Modeling comment (PanDDA run, overall) [1, 11]: Duplicate, not modeled; Phe132 loop open state ([1]; open state of Phe132 loop seen in the ligand-bound structure): TRUE
O=C(O)C(F)(F)F.OCC1(Nc2ncnc3[nH]ccc23)CCC1 [AVI-3670]	–	–	–	36%	–	1.2	1.2	0	0.18	TRUE	TRUE	0.18	TRUE	2	36%	Adenosine	PanDDA run, overall: Modeled [1, 14]: TRUE
OC1(CNc2ncnc3[nH]ccc23)CCCOC1 (centres unmarked) [AVI-4311]	0.25	50%	TRUE	50%	Adenosine	1.4	1.4	–	–	–	–	–	–	–	–	–	Hit (PanDDA run, DMSO background map) [1, 4]: TRUE; 1-BDC (PanDDA run, DMSO background map) [1, 4]: 0.25; Hit (PanDDA run, overall) [1, 5]: TRUE
O=S1(=O)CCCC(O)(CNc2ncnc3[nH]ccc23)C1 (centres unmarked) [AVI-4317]	0.43	100%	TRUE	86%	Adenosine	1.2	1.2	–	–	–	–	–	–	–	–	–	–
OC[C@@H]1C[C@@H]2CCC[C@@H]2N1c1ncnc2[nH]ccc12 [AVI-3720]	–	–	TRUE	58%	Adenosine	1.2	1.2	0	0.29	–	TRUE	0.29	TRUE	1	58%	–	Phe132 loop open state [1]: TRUE
CC1CCC(O)(CNc2ncnc3[nH]ccc23)CC1 (centres unmarked) [AVI-4312]	0.22	44%	TRUE	44%	Adenosine	1.2	1.2	–	–	–	–	–	–	–	–	–	–
Cc1c[nH]c2ncnc(NCC3(O)CCC(C)CC3)c12 (centres unmarked) [AVI-4331]	0.27	54%	TRUE	54%	Adenosine	1.2	1.2	–	–	–	–	–	–	–	–	–	Hit (PanDDA run, overall) [1, 14]: TRUE; Hit (PanDDA run, DMSO background map) [1, 4]: TRUE; 1-BDC (PanDDA run, DMSO background map) [1, 4]: 0.27; Hit (PanDDA run, DMSO background map) [1, 10]: TRUE; 1-BDC (PanDDA run, DMSO background map) [1, 10]: 0.23; Hit (PanDDA run, overall) [1, 11]: TRUE; Modeling comment (PanDDA run, overall) [1, 11]: Duplicate, not modeled
OC1(CNc2ncnc3[nH]ccc23)CCOCC1 [AVI-4314]	0.15	30%	TRUE	30%	Adenosine	1.2	1.2	–	–	–	–	–	–	–	–	–	–
O[C@H]1CC[C@@H]2CCN(c3ncnc4[nH]ccc34)[C@@H]21 [AVI-3664]	–	–	TRUE	32%	Adenosine	1.2	1.2	0	0.16	–	TRUE	0.16	TRUE	1	32%	–	PanDDA run, overall: Modeled [1, 14]: TRUE
O=C(O)C(F)(F)F.OC[C@H](Cc1ccc(O)cc1)Nc1ncnc2[nH]ccc12 [AVI-4066]	0.2	50%	–	40%	–	1.1	1.1	–	–	TRUE	–	–	–	–	–	Adenosine	Hit (PanDDA run, DMSO background map) [1, 4]: TRUE; 1-BDC (PanDDA run, DMSO background map) [1, 4]: 0.2 and 0.37 and 0.38; Hit (PanDDA run, overall) [1, 5]: TRUE
OC1(CNc2ncnc3[nH]ccc23)CCCSC1 (centres unmarked) [AVI-4322]	0.21	42%	TRUE	42%	Adenosine	1.3	1.3	–	–	–	–	–	–	–	–	–	–
OCC1CC=CCN1c1ncnc2[nH]ccc12 (centres unmarked) [AVI-6002]	0.16	50%	TRUE	32%	Adenosine	1.3	1.3	–	–	–	–	–	–	–	–	–	–
